Laboratory results reported in the supplement of paper PMC10307832.

How the values were obtained:
Test in all cases: relative viability (nuclei count vs DMSO), 5 days (fraction); higher = more cells survive
NCI-H1975 = tested on: NCI-H1975
Outline: (§1)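 For relative viability, nuclei counts in treated wells were divided by those in vehicle wells. Lung cancer cell lines had been pin-tool dosed in 1536-well plates the day after seeding and cultured for 5 days, then fixed and stained in one step (final 0.05% Triton X-100, 1% formaldehyde, 1 ug/ml Hoechst) and imaged at 4×. Doses were one drug alone or a fixed anchor-drug dose plus five library-drug doses (not always all listed) in √10 steps, and values are duplicate-plate medians.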

UMC-11 = tested on: UMC-11
Outline: as §1

NCI-H2009 = tested on: NCI-H2009
Outline: as §1

NCI-H2170 = tested on: NCI-H2170
Outline: as §1

H3255 = tested on: H3255
Outline: as §1

SW 1573 = tested on: SW 1573
Outline: as §1

LOU-NH91 = tested on: LOU-NH91
Outline: as §1

HARA = tested on: HARA
Outline: as §1

NCI-H2087 = tested on: NCI-H2087
Outline: as §1

SW 900 = tested on: SW 900
Outline: as §1

NCI-H727 = tested on: NCI-H727
Outline: as §1

NCI-H23 = tested on: NCI-H23
Outline: as §1

Structure (SMILES): Cc1cn(-c2cc(NC(=O)c3ccc(C)c(Nc4nccc(-c5cccnc5)n4)c3)cc(C(F)(F)F)c2)cn1 [Nilotinib] + O=C(CCCCCCC(=O)Nc1ccccc1)NO [Vorinostat] (partner 1 µM)
- relative viability (NCI-H1975; first compound 0.001 µM): 0.598
- relative viability (NCI-H1975; first compound 0.003162 µM): 0.742
- relative viability (NCI-H1975; first compound 0.01 µM): 0.702
- relative viability (NCI-H1975; first compound 0.03162 µM): 0.489
- relative viability (NCI-H1975; first compound 0.1 µM): 0.643
- relative viability (UMC-11; first compound 0.001 µM): 0.359
- relative viability (UMC-11; first compound 0.003162 µM): 0.398
- relative viability (UMC-11; first compound 0.01 µM): 0.346
- relative viability (UMC-11; first compound 0.03162 µM): 0.336
- relative viability (UMC-11; first compound 0.1 µM): 0.458
- relative viability (NCI-H2009; first compound 0.001 µM): 0.607
- relative viability (NCI-H2009; first compound 0.003162 µM): 0.755
- relative viability (NCI-H2009; first compound 0.01 µM): 0.743
- relative viability (NCI-H2009; first compound 0.03162 µM): 0.579
- relative viability (NCI-H2009; first compound 0.1 µM): 0.46
- relative viability (NCI-H2170; first compound 0.001 µM): 0.818
- relative viability (NCI-H2170; first compound 0.003162 µM): 1.16
- relative viability (NCI-H2170; first compound 0.01 µM): 1.05
- relative viability (NCI-H2170; first compound 0.03162 µM): 0.622
- relative viability (NCI-H2170; first compound 0.1 µM): 0.877
- relative viability (H3255; first compound 0.001 µM): 0.743
- relative viability (H3255; first compound 0.003162 µM): 0.706
- relative viability (H3255; first compound 0.03162 µM): 0.764
- relative viability (H3255; first compound 0.1 µM): 0.429
- relative viability (SW 1573; first compound 0.001 µM): 0.527
- relative viability (SW 1573; first compound 0.003162 µM): 0.849
- relative viability (SW 1573; first compound 0.01 µM): 0.977
- relative viability (SW 1573; first compound 0.03162 µM): 0.438
- relative viability (SW 1573; first compound 0.1 µM): 0.222
- relative viability (LOU-NH91; first compound 0.001 µM): 1.03
- relative viability (LOU-NH91; first compound 0.003162 µM): 0.936
- relative viability (LOU-NH91; first compound 0.01 µM): 0.946
- relative viability (LOU-NH91; first compound 0.03162 µM): 0.898
- relative viability (LOU-NH91; first compound 0.1 µM): 0.882
- relative viability (HARA; first compound 0.001 µM): 0.544
- relative viability (HARA; first compound 0.003162 µM): 0.668
- relative viability (HARA; first compound 0.01 µM): 0.507
- relative viability (HARA; first compound 0.03162 µM): 0.401
- relative viability (HARA; first compound 0.1 µM): 0.423
- relative viability (NCI-H2087; first compound 0.001 µM): 0.707
- relative viability (NCI-H2087; first compound 0.003162 µM): 0.709
- relative viability (NCI-H2087; first compound 0.01 µM): 1.23
- relative viability (NCI-H2087; first compound 0.03162 µM): 0.567
- relative viability (NCI-H2087; first compound 0.1 µM): 0.543
- relative viability (SW 900; first compound 0.003162 µM): 0.456
- relative viability (SW 900; first compound 0.01 µM): 0.624
- relative viability (SW 900; first compound 0.03162 µM): 0.216
- relative viability (SW 900; first compound 0.1 µM): 0.368
- relative viability (NCI-H727; first compound 0.001 µM): 1.12
- relative viability (NCI-H727; first compound 0.003162 µM): 1.35
- relative viability (NCI-H727; first compound 0.01 µM): 1.16
- relative viability (NCI-H727; first compound 0.03162 µM): 1.15
- relative viability (NCI-H727; first compound 0.1 µM): 1.05
- relative viability (NCI-H23; first compound 0.001 µM): 0.48
- relative viability (NCI-H23; first compound 0.003162 µM): 0.438
- relative viability (NCI-H23; first compound 0.01 µM): 0.685
